{
  "source": "PubChem BioAssay AID720662",
  "about": "(NMMLSC, 2013)",
  "note": "Activity calls are given as the source filed them.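 How the source made its calls: active means inhibition of esterase secretion above 50%; inactive means inhibition of esterase secretion below 50%.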",
  "data": [
    {"tested_on": "TALL-104 cells, BLT esterase secretion, DTNB absorbance", "experiment": "inhibitors of granule serine esterase release, confirmation, TALL-104 cells, BLT/DTNB absorbance, CherryPick01 (AID 720662)", "details": "active compounds read high; dose or concentration not given here", "values": [
      {"smiles": "CN(C)CCCNC(=S)NCC(c1ccc(Cl)cc1Cl)c1c[nH]c2ccccc12", "note": "(stereo not given)", "inhibition": "-3% (inactive)"},
      {"smiles": "Cc1cc(C)c2nc(C)cc(N/N=C/c3ccc(O)cc3)c2c1", "inhibition": "88%"},
      {"smiles": "CN1CCN(c2cc(-c3ccccc3)nc3cc(-c4ccc(F)cc4)nn23)CC1", "inhibition": "79%"},
      {"smiles": "Cc1cc(N2CCN(c3nc(-c4ccc([N+](=O)[O-])cc4)cs3)CC2)c2ccccc2n1", "inhibition": "80%"},
      {"smiles": "O=C(Nc1ccc(F)cc1)c1nc(S(=O)(=O)Cc2ccccc2)ncc1Cl", "inhibition": "97%"},
      {"smiles": "COc1ccc(N2C(=O)CC(Sc3nnc(-c4ccccc4)o3)C2=O)cc1", "note": "(stereo not given)", "inhibition": "89%"},
      {"smiles": "COc1ccc(-c2cc(NC=O)c3ncc(-c4ccccc4)n3c2)cc1OC", "inhibition": "63%"},
      {"smiles": "Fc1ccc(/C=C\\c2nccc3c2[nH]c2ccccc23)cc1", "inhibition": "86%"},
      {"smiles": "COC(=O)c1c(NC(=O)c2nc3ccccc3s2)sc2c1CC(C)(C)NC2(C)C", "inhibition": "51%"},
      {"smiles": "CCCCC[C@@H](C)N1C[C@H](COCc2ccccc2)Oc2cc(N3CC[C@@H](N(C)C)C3)ccc2S1(=O)=O", "inhibition": "64%"},
      {"smiles": "Cn1sc(=O)c2cc(S(=O)(=O)NC3CC3)ccc21", "inhibition": "63%"},
      {"smiles": "COc1cccc(NC(=O)Nc2nc(-c3ccc(OC)c(OC)c3)cs2)c1", "inhibition": "96%"},
      {"smiles": "O=c1c2ccc(F)cc2sn1-c1ccccc1", "inhibition": "61%"},
      {"smiles": "COc1cc(-c2coc3c(C(=O)NCc4ccc(OC)c(OC)c4)cccc23)ccc1O", "inhibition": "20% (inactive)"},
      {"smiles": "Cn1cncc1C#Cc1c(-c2ccc(S(C)(=O)=O)cc2)sc2ccccc12", "inhibition": "13% (inactive)"},
      {"smiles": "COc1ccccc1CNc1nc(NCc2ccc(C(C)C)cc2)c2sccc2n1", "inhibition": "54%"},
      {"smiles": "c1ccc(CNc2nc(NCC3CC3)nc3cc(-c4ccccc4)sc23)cc1", "inhibition": "86%"},
      {"smiles": "CCN(CC)CCCNc1ccc(-c2nnc(-c3ccc(OCC(C)C)cc3)o2)cn1", "inhibition": "52%"},
      {"smiles": "COc1cccc(-c2cnc3c(NC(C)=O)cc(-c4ccsc4)cn23)c1", "inhibition": "64%"},
      {"smiles": "CCCCC[C@@H](C)N1C[C@@H](COCc2ccccc2)Oc2cc(N3CC[C@@H](N(C)C)C3)ccc2S1(=O)=O", "inhibition": "76%"},
      {"smiles": "CC1=NOC(=O)/C1=C/c1ccc(-c2ccc(Cl)cc2)o1", "inhibition": "73%"},
      {"smiles": "O=C(Cn1sc2ccccc2c1=O)NC12CC3CC(CC(C3)C1)C2", "inhibition": "33% (inactive)"},
      {"smiles": "COc1ccc(-c2cc(NC=O)c3ncc(-c4cccc(OC)c4)n3c2)cc1", "inhibition": "77%"},
      {"smiles": "COc1ccccc1CNc1nc(NCc2ccc3occc3c2)c2sccc2n1", "inhibition": "22% (inactive)"},
      {"smiles": "CCCNC(=O)Cn1sc2nc(C)cc(C)c2c1=O", "inhibition": "38% (inactive)"},
      {"smiles": "CN(c1ccccc1)S(=O)(=O)c1cccc(C(=O)NCCc2c[nH]c3ccccc23)c1", "inhibition": "23% (inactive)"},
      {"smiles": "COc1cccc(-c2cnc3c(NC(C)=O)cc(-c4ccccc4OC)cn23)c1", "inhibition": "68%"},
      {"smiles": "O=C(Cn1sc2ccccc2c1=O)Nc1ccc(F)cc1", "inhibition": "38% (inactive)"},
      {"smiles": "N#Cc1c(Nc2ccccc2Cl)s[nH]c1=O", "inhibition": "92%"},
      {"smiles": "COc1cccc(-c2cnc3c(NC=O)cc(-c4ccccc4)cn23)c1", "inhibition": "43% (inactive)"},
      {"smiles": "CN1CCN(CCCNC(=O)c2ccc(/C=C3\\Sc4ccccc4N(Cc4ccc(F)cc4)C3=O)cc2)CC1", "inhibition": "-12% (inactive)"},
      {"smiles": "CC(C)(c1ccccc1)c1ccc(OCC(O)CNC2CCN(Cc3ccccc3)CC2)cc1", "note": "(stereo not given)", "inhibition": "83%"},
      {"smiles": "CCOc1ccccc1CNC(=O)C1CCN(c2nnc(C)c3c(C)n(-c4ccc(C)cc4)nc23)CC1", "inhibition": "94%"},
      {"smiles": "COc1ccc(-n2sc3ccccc3c2=O)cc1", "inhibition": "45% (inactive)"},
      {"smiles": "COc1ccc([N+](=O)[O-])cc1Nc1c2ccccc2nc2ccccc12", "inhibition": "10% (inactive)"},
      {"smiles": "Nc1c(C(=O)NCc2ccc(F)cc2)c2nc3ccccc3nc2n1CCCN1CCOCC1", "inhibition": "15% (inactive)"},
      {"smiles": "CC1(C(=O)OCC(=O)Nc2nc(-c3ccc(F)c(F)c3)cs2)CC1(Cl)Cl", "note": "(stereo not given)", "inhibition": "-8% (inactive)"},
      {"smiles": "CC1=C(C)CS(=O)N(S(=O)(=O)c2ccc(Cl)cc2)C1", "note": "(stereo not given)", "inhibition": "99%"},
      {"smiles": "Cc1ccc(-n2nnc3c(=O)oc4ccccc4c32)cc1", "inhibition": "94%"},
      {"smiles": "O=C(CN1C(=O)/C(=C\\c2cccc(Br)c2)Oc2ccccc21)NCCCN1CCOCC1", "inhibition": "24% (inactive)"},
      {"smiles": "OC(CNCC(c1ccc(Cl)cc1Cl)c1c[nH]c2ccccc12)c1ccccc1", "note": "(stereo not given)", "inhibition": "2% (inactive)"},
      {"smiles": "CCc1nc2ccc(C(=O)NC3CCN(Cc4ccccc4)CC3)cn2c1N(C)Cc1cc2ccccc2s1", "inhibition": "-4% (inactive)"},
      {"smiles": "CCc1ccc(/C=C2/Sc3ccccc3N(CC(=O)NCCCN3CCOCC3)C2=O)cc1", "inhibition": "14% (inactive)"},
      {"smiles": "COC(=O)[C@]12CCCCC=C1N(Cc1cccc3ccccc13)C(=O)[C@H](CC(=O)NCc1ccc(OC)c(OC)c1)C2", "inhibition": "14% (inactive)"},
      {"smiles": "CCC(=C(c1ccc(OC)cc1)c1ccc(OC)cc1)c1cn(CC(O)CN2CCN(C)CC2)c2ccccc12", "note": "(stereo not given)", "inhibition": "1% (inactive)"},
      {"smiles": "CC(=O)Nc1ccc2c(=O)n(-c3ccccc3)sc2c1", "inhibition": "25% (inactive)"},
      {"smiles": "CCCCn1c(=N)n(CC(=O)c2ccc(Br)s2)c2ccccc21", "inhibition": "91%"},
      {"smiles": "O=c1c2ccccc2sn1-c1ccccc1F", "inhibition": "38% (inactive)"},
      {"smiles": "CCOC(=O)c1nnc(-c2ccccc2)nc1Sc1ccccc1Cl", "inhibition": "-8% (inactive)"},
      {"smiles": "CCc1ccc2nc(N(CCCN(C)C)C(=O)c3ccc(S(=O)(=O)N4CCc5ccccc5C4)cc3)sc2c1", "inhibition": "67%"},
      {"smiles": "CCOc1ccc2[nH]c3c(N4CCc5ccccc5C4)ncnc3c2c1", "inhibition": "-5% (inactive)"},
      {"smiles": "CCOc1ccc2nc(C)cc(Nc3cccc([N+](=O)[O-])c3)c2c1", "inhibition": "95%"},
      {"smiles": "CC(=O)Nc1ccc2sn(-c3ccccc3)c(=O)c2c1", "inhibition": "20% (inactive)"},
      {"smiles": "CCCCCCSc1cccc(-c2nc3ccccn3c2NCc2ccccc2)c1", "inhibition": "7% (inactive)"},
      {"smiles": "CCOC(=O)c1c(NC(=O)COc2ccccc2OCC)sc2c1CC(C)(C)NC2(C)C", "inhibition": "55%"},
      {"smiles": "COC(=O)c1c(NC(=O)c2ccc(C(=O)c3ccccc3)cc2)sc2c1CC(C)(C)NC2(C)C", "inhibition": "5% (inactive)"},
      {"smiles": "N#Cc1ccc(NC(=O)Nc2ccc(Oc3ccc(NC(=O)Nc4ccc(C#N)cc4)cc3)cc2)cc1", "inhibition": "36% (inactive)"},
      {"smiles": "O=C1CC(Sc2nnnn2-c2ccccc2)C(=O)N1c1cccc(Cl)c1", "note": "(stereo not given)", "inhibition": "72%"},
      {"smiles": "Cc1ccc(Nc2nc(NCc3ccco3)c3ccccc3n2)cc1", "inhibition": "12% (inactive)"},
      {"smiles": "O=C1Nc2ccc(Br)cc2/C1=C/C(=O)c1ccccc1", "inhibition": "3% (inactive)"},
      {"smiles": "O=c1c2ccccc2sn1-c1ccccc1", "inhibition": "68%"},
      {"smiles": "CN(C)CCNC(=O)c1ccc(-c2cn3c(-c4ccc(Oc5ccccc5)cc4)cnc3cn2)cc1", "inhibition": "14% (inactive)"},
      {"smiles": "CCOc1ccc2nc(N(CCCN(C)C)C(=O)c3ccc(S(=O)(=O)N4CCc5ccccc5C4)cc3)sc2c1", "inhibition": "91%"},
      {"smiles": "CCOc1cc(CNCCc2ccc(S(N)(=O)=O)cc2)ccc1OCc1ccc(Cl)cc1", "inhibition": "90%"},
      {"smiles": "Cc1ccc(S(=O)(=O)n2ccc3c(OCCOCCNCc4ccc(F)cc4)cccc32)cc1", "inhibition": "67%"},
      {"smiles": "CC1COCC(C)N1C1=C(Cl)C(=O)c2ccccc2C1=O", "note": "(stereo not given)", "inhibition": "97%"},
      {"smiles": "CCOC(=O)c1cc(-c2csc(Nc3c(C)cc(C)cc3C)n2)on1", "inhibition": "68%"},
      {"smiles": "O=C1C=CC(=O)N1N(c1ccccc1)c1ccccc1", "inhibition": "27% (inactive)"},
      {"smiles": "CC(C)CNC(=O)c1c(N)n(Cc2ccc3c(c2)OCO3)c2nc3ccccc3nc12", "inhibition": "3% (inactive)"},
      {"smiles": "CCCCC[C@@H](C)N1C[C@@H](COCc2ccccc2)Oc2cc(N3CC[C@H](N(C)C)C3)ccc2S1(=O)=O", "inhibition": "74%"},
      {"smiles": "O=CNc1cc(-c2ccsc2)cn2c(-c3ccccc3)cnc12", "inhibition": "41% (inactive)"},
      {"smiles": "CCCS(=O)(=O)Nc1ccc(Nc2c3ccccc3nc3ccccc23)c(OC)c1", "inhibition": "81%"},
      {"smiles": "O=C(OCc1ccccc1)N(CCCCN(CCCNCc1ccccc1)C(=O)OCc1ccccc1)CCCNCc1ccccc1", "inhibition": "88%"},
      {"smiles": "CCOC(=O)c1c(CSc2ccccc2)n(C)c2cc(Br)c(O)c(CN(C)C)c12", "inhibition": "25% (inactive)"},
      {"smiles": "O=S(=O)(c1ccccc1)c1nnn2c1nc(NC1CCN(Cc3ccccc3)CC1)c1cc(Cl)ccc12", "inhibition": "88%"}
    ]}
  ]
}
